Assay results: US20250312499A1, “KISSPEPTIN RECEPTOR (KISS1R) TARGETED THERAPEUTICS AND USES THEREOF” (priority 2024, published 2025)
Numbered stars: 1 amine (or outer) side, 2 acyl side, 3 side chain; on linkers, the order of the positions; unused ones are H or OH. Square brackets hold non-standard residues; d marks the D form. Peptide text beside a SMILES is read from it. * marks the point of attachment. DOTA = O=C(O)CN1CCN(CC(=O)O)CCN(CC(=O)*)CCN(CC(=O)O)CC1; Gly(N-(3-F-4-Me-benzyl)) = Cc1ccc(CNCC(=O)*)cc1F; X4 = O=C(c1ccc(-c2ccccc2OCCCN[*:1])cc1)[*:2]; Api(1-amidino) = N=C(N)N1CCC(N)(C(=O)O)CC1; Bip = N[C@@H](Cc1ccc(-c2ccccc2)cc1)C(=O)O; Phe(3-F) = N[C@@H](Cc1cccc(F)c1)C(=O)O; 2Nal = N[C@@H](Cc1ccc2ccccc2c1)C(=O)O; d2Nal = N[C@H](Cc1ccc2ccccc2c1)C(=O)O; X1 = O=C(CN1CCC(N[*:1])CC1)[*:2]; 4Pal = N[C@@H](Cc1ccncc1)C(=O)O; d4Pal = N[C@H](Cc1ccncc1)C(=O)O; Cha = N[C@@H](CC1CCCCC1)C(=O)O; 4Amb = NCc1ccc(C(=O)O)cc1; Api = NC1(C(=O)O)CCNCC1; Ahx = NCCCCCC(=O)O; azaGly = NNC(=O)O

Biological target: human kisspeptin receptor (Homo sapiens (Human), UniProt Q969F8)
Assay: Human KISS1R binding assay (membrane competition binding)
Conditions: 90 min at room temperature; competition with 0.2 nM [125I]-metastin (45-54); Flp-In T-Rex 293 kisspeptin membranes; metal complexes nonradioactive Ga, In, Lu; read-out: hKiSSR Binding Ki (90 min)
Procedure, shortened: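 Radioligand competition: 0.2 nM [125I]-metastin (45-54) displaced by test ligand (usually 0–10,000 nM) over 90 min at room temperature, pH 7.4 buffer with 0.1% BSA. Receptor source is crude membrane (5–10 μg) from tetracycline-induced Flp-In T-Rex 293 cells. Bound label filtered and counted; Ki from non-linear regression.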

human kisspeptin receptor, sequence (Q969F8 whole entry): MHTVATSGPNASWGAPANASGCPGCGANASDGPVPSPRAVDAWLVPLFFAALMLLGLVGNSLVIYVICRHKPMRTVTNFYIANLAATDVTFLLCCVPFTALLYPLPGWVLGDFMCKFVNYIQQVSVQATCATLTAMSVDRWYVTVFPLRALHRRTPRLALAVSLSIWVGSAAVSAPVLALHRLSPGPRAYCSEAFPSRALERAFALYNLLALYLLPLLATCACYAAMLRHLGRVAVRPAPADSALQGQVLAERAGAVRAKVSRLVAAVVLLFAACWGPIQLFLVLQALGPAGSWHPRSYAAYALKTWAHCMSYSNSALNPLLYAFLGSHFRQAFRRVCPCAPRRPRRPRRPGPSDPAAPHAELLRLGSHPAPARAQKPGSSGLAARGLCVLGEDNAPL

Row | SMILES | Ki [nM]
1 | Cc1ccc(CNCC(=O)N2CCC(NC(=O)[C@@H](CC(C)C)NC(=O)NNC(=O)[C@H](Cc3ccccc3)NC(=O)c3ccc(CNC(=O)CN4CCN(CC(=O)O)CCN(CC(=O)O)CCN(CC(=O)O)CC4)cc3)(C(=O)N[C@@H](Cc3c[nH]c4ccccc34)C(N)=O)CC2)cc1F [Compound 260] ({DOTA-4Amb}-F[azaGly][dL][Api](Gly(N-(3-F-4-Me-benzyl)))W-NH2) | 10 to 100
2 | CC(=O)N[C@H](Cc1ccc(O)cc1)C(=O)N[C@H](Cc1c[nH]c2ccccc12)C(=O)N[C@@H](CC(N)=O)C(=O)N[C@H](C(=O)N[C@@H](Cc1ccccc1)C(=O)NNC(=O)N[C@@H](CC(C)C)C(=O)NC1(C(=O)N[C@@H](Cc2c[nH]c3ccccc23)C(N)=O)CCN(C(=O)CNCc2ccc(C)c(F)c2)CC1)[C@@H](C)O [Compound 390] (Ac-[dY][dW]NTF[azaGly]L[Api](Gly(N-(3-F-4-Me-benzyl)))W-NH2) | < 10
3 | CC(C)C[C@H](NC(=O)NNC(=O)[C@H](Cc1ccccc1)NC(=O)[C@@H](NC(=O)[C@H](CC(N)=O)NC(=O)[C@H](Cc1ccc2ccccc2c1)NC(=O)[C@@H](Cc1ccc(O)cc1)NC(=O)CCCCCNC(=O)CN1CCN(CC(=O)O)CCN(CC(=O)O)CCN(CC(=O)O)CC1)[C@@H](C)O)C(=O)NC1(C(=O)N[C@@H](Cc2ccc(O)cc2)C(N)=O)CCN(C(=N)N)CC1 [Compound 276] ({DOTA-Ahx}-[dY][2Nal]NTF[azaGly]L[Api(1-amidino)]Y-NH2) | < 10
4 | Cc1ccc(CNCC(=O)N2CCC(NC(=O)[C@H](CC(C)C)NC(=O)NNC(=O)c3ccc(-c4ccccc4OCCCNC(=O)CN4CCC(NC(=O)CN5CCN(CC(=O)O)CCN(CC(=O)O)CCN(CC(=O)O)CC5)CC4)cc3)(C(=O)N[C@@H](Cc3c[nH]c4ccccc34)C(N)=O)CC2)cc1F [Compound 217] ({DOTA}-[X1][X4][azaGly]L[Api](Gly(N-(3-F-4-Me-benzyl)))W-NH2) | < 10
5 | CC(C)C[C@H](NC(=O)NNC(=O)[C@H](CC1CCCCC1)NC(=O)[C@@H](NC(=O)[C@H](CC(N)=O)NC(=O)[C@@H](Cc1ccc2ccccc2c1)NC(=O)[C@@H](Cc1ccc(O)cc1)NC(=O)CCCCCNC(=O)CN1CCN(CC(=O)O)CCN(CC(=O)O)CCN(CC(=O)O)CC1)[C@@H](C)O)C(=O)NC1(C(=O)N[C@@H](Cc2c[nH]c3ccccc23)C(N)=O)CCN(C(=N)N)CC1 [Compound 317] ({DOTA-Ahx}-[dY][d2Nal]NT[Cha][azaGly]L[Api(1-amidino)]W-NH2) | < 10
6 | CC(C)C[C@H](NC(=O)NNC(=O)[C@H](Cc1ccccc1)NC(=O)[C@@H](NC(=O)[C@H](CC(N)=O)NC(=O)[C@H](Cc1ccc(-c2ccccc2)cc1)NC(=O)[C@@H](Cc1ccc(O)cc1)NC(=O)CCCCCNC(=O)CN1CCN(CC(=O)O)CCN(CC(=O)O)CCN(CC(=O)O)CC1)[C@@H](C)O)C(=O)NC1(C(=O)N[C@@H](Cc2c[nH]c3ccccc23)C(N)=O)CCN(C(=N)N)CC1 [Compound 198] ({DOTA-Ahx}-[dY][Bip]NTF[azaGly]L[Api(1-amidino)]W-NH2) | < 10
7 | Cc1ccc(CNCC(=O)N2CCC(NC(=O)[C@H](CC(C)C)NC(=O)NNC(=O)[C@H](Cc3ccccc3)NC(=O)CN3CCC(NC(=O)CN4CCN(CC(=O)O)CCN(CC(=O)O)CCN(CC(=O)O)CC4)CC3)(C(=O)N[C@@H](Cc3c[nH]c4ccccc34)C(N)=O)CC2)cc1F [Compound 28] ({DOTA}-[X1]F[azaGly]L[Api](Gly(N-(3-F-4-Me-benzyl)))W-NH2) | < 10
8 | Cc1ccc(CNCC(=O)N2CCC(NC(=O)[C@H](CC(C)C)N3CC(NC(=O)[C@H](Cc4ccccc4)NC(=O)CCCCCNC(=O)CN4CCN(CC(=O)O)CCN(CC(=O)O)CCN(CC(=O)O)CC4)C3)(C(=O)N[C@@H](Cc3c[nH]c4ccccc34)C(N)=O)CC2)cc1F [Compound 139] | 10 to 100
9 | Cc1ccc(CNCC(=O)N2CCC(NC(=O)[C@H](CC(C)C)NC(=O)NNC(=O)[C@H](Cc3cccc(F)c3)NC(=O)[C@@H](NC(=O)[C@H](CC(N)=O)NC(=O)[C@H](CCCCN)NC(=O)[C@@H](Cc3ccc(O)cc3)NC(=O)CCCCCNC(=O)CN3CCN(CC(=O)O)CCN(CC(=O)O)CCN(CC(=O)O)CC3)[C@@H](C)O)(C(=O)N[C@@H](Cc3c[nH]c4ccccc34)C(N)=O)CC2)cc1F [Compound 27] ({DOTA-Ahx}-[dY]KNT[Phe(3-F)][azaGly]L[Api](Gly(N-(3-F-4-Me-benzyl)))W-NH2) | < 10
10 | CC(C)C[C@H](NC(=O)[C@H](Cc1ccccc1)NC(=O)[C@H](CC(N)=O)NC(=O)[C@H](CCCNC(=N)N)NC(=O)[C@H](CC(N)=O)NC(=O)[C@@H](NC(=O)CCCCCNC(=O)CN1CCN(CC(=O)O)CCN(CC(=O)O)CCN(CC(=O)O)CC1)[C@@H](C)O)C(=O)NC1(C(=O)N[C@@H](Cc2ccccc2)C(N)=O)CCN(C(=N)N)CC1 [Compound 199] ({DOTA-Ahx}-TNRNFL[Api(1-amidino)]F-NH2) | > 100
11 | Cc1ccc(CNCC(=O)N2CCC(NC(=O)[C@H](CC(C)C)NC(=O)NNC(=O)[C@H](Cc3ccccc3)NC(=O)CN3CCC(NC(=O)CN4CCN(CC(=O)O)CCN(CC(=O)O)CCN(CC(=O)O)CC4)CC3)(C(=O)N[C@@H](Cc3ccncc3)C(N)=O)CC2)cc1F [Compound 246] ({DOTA}-[X1]F[azaGly]L[Api](Gly(N-(3-F-4-Me-benzyl)))[4Pal]-NH2) | 10 to 100
12 | Cc1ccc(CNCC(=O)N2CCC(NC(=O)[C@H](CC(C)C)NC(=O)NNC(=O)[C@H](Cc3ccccc3)NC(=O)[C@@H](NC(=O)[C@H](CC(N)=O)NC(=O)[C@@H](Cc3ccncc3)NC(=O)[C@@H](Cc3ccc(O)cc3)NC(=O)CCCCCNC(=O)CN3CCN(CC(=O)O)CCN(CC(=O)O)CCN(CC(=O)O)CC3)[C@@H](C)O)(C(=O)N[C@@H](Cc3ccncc3)C(N)=O)CC2)cc1F [Compound 294] ({DOTA-Ahx}-[dY][d4Pal]NTF[azaGly]L[Api](Gly(N-(3-F-4-Me-benzyl)))[4Pal]-NH2) | < 10
13 | Cc1ccc(CNCC(=O)N2CCC(NC(=O)[C@H](CC(C)C)NC(=O)NNC(=O)[C@H](Cc3ccccc3)NC(=O)[C@@H](NC(=O)[C@H](CC(N)=O)NC(=O)[C@@H](Cc3ccc4ccccc4c3)NC(=O)[C@@H](Cc3ccc(O)cc3)NC(=O)CNC(=O)CN3CCN(CC(=O)O)CCN(CC(=O)O)CCN(CC(=O)O)CC3)[C@@H](C)O)(C(=O)N[C@@H](Cc3c[nH]c4ccccc34)C(N)=O)CC2)cc1F [Compound 365] ({DOTA}-G[dY][d2Nal]NTF[azaGly]L[Api](Gly(N-(3-F-4-Me-benzyl)))W-NH2) | < 10
14 | CC(=O)N[C@@H](Cc1ccccc1)C(=O)NNC(=O)N[C@@H](CC(C)C)C(=O)NC1(C(=O)N[C@@H](Cc2c[nH]c3ccccc23)C(N)=O)CCN(C(=O)CNCc2ccc(C)c(F)c2)CC1 [Compound 392] (Ac-F[azaGly]L[Api](Gly(N-(3-F-4-Me-benzyl)))W-NH2) | < 10
15 | CC(C)C[C@H](NC(=O)NNC(=O)[C@H](Cc1ccccc1)NC(=O)[C@@H](NC(=O)[C@H](CC(N)=O)NC(=O)[C@@H](Cc1ccc2ccccc2c1)NC(=O)[C@@H](Cc1ccc(O)cc1)NC(=O)CCCCCNC(=O)CN1CCN(CC(=O)O)CCN(CC(=O)O)CCN(CC(=O)O)CC1)[C@@H](C)O)C(=O)NC1(C(=O)N[C@@H](Cc2ccc(O)cc2)C(N)=O)CCN(C(=N)N)CC1 [Compound 185] ({DOTA-Ahx}-[dY][d2Nal]NTF[azaGly]L[Api(1-amidino)]Y-NH2) | < 10
16 | Cc1ccc(CNCC(=O)N2CCC(NC(=O)[C@H](CC(C)C)NC(=O)NNC(=O)c3ccc(-c4ccccc4OCCCNC(=O)CN4CCN(CC(=O)O)CCN(CC(=O)O)CCN(CC(=O)O)CC4)cc3)(C(=O)N[C@@H](Cc3c[nH]c4ccccc34)C(N)=O)CC2)cc1F [Compound 298] ({DOTA}-[X4][azaGly]L[Api](Gly(N-(3-F-4-Me-benzyl)))W-NH2) | < 10
